{"source": "paper PMC6105164", "about": "(Cancer Chemotherapy and Pharmacology, 2018)", "key": {"[1]": {"tested_on": "patients with KRAS mutations", "conditions": "previous phase II trial; cited from earlier work"}, "RAS-mutated patients": {"tested_on": "RAS-mutated patients", "conditions": "previous phase I/II trials in the USA; cited from earlier work"}, "clinical": {"assay": "clinical", "conditions": "human, in vivo; for AUC(0-t): AUC12h", "procedure": "This trial was a multiple-ascending dose trial in 28-day cycles. The doses used were 100, 200, 400, 600, 800, and 1000 mg. The initial dose (100 mg) was determined in accordance with the International Conference on Harmonisation of Technical Requirements for Registration of Pharmaceuticals for Human Use-S9 guideline. […] Patients received only the morning dose on day 1 for pharmacokinetics evaluation. […] Grades were determined according to the National Cancer Institute Common Terminology Criteria for Adverse Events (NCI-CTCAE v.4.0).\nBlood samples were collected 10 times on day 1 (before drug administration, and 0.5-, 1-, 1.5-, 2-, 4-, 6-, 8-, 12-, and 24-h post-administration), once on days 4, 7, and 14, and 9 times on day 21 (before morning dose, and 0.5, 1, 1.5, 2, 4, 6, 8, and 12 h after morning dose but before evening dose). Urine samples were collected from patients who received 200, 600, or 1000 mg on day 1 (before drug administration, and 0–6-, 6–12-, 12–24-h post-administration)."}}}
{"smiles": "CC(C)=CCC/C(C)=C/CC/C(C)=C/CSc1ccccc1C(=O)O", "note": "[Salirasib, S-trans, trans-farnesylthiosalicylic acid]", "values": [{"measurement": "partial response (PR)", "setting": "[1]", "result": "no patients achieved PR"}, {"measurement": "efficacy in RAS-mutated patients", "setting": "RAS-mutated patients", "result": "not conclusive"}, {"measurement": "tolerability", "setting": "RAS-mutated patients", "result": "good tolerability"}, {"measurement": "dose at which Cmax and AUCinf were maximal", "setting": "clinical", "result": 800, "unit": "mg"}, {"measurement": "dose proportionality of Cmax and AUC12h (power model analyses)", "setting": "clinical", "result": "increased proportionally and in dose-dependent manners"}, {"measurement": "half-life", "setting": "clinical", "result": "3.5 to 9.11", "unit": "h"}, {"measurement": "mean Cmax across dose groups", "setting": "clinical", "result": "1180 to 4870", "unit": "ng/mL"}, {"measurement": "time to Cmax, median, across dose groups", "setting": "clinical", "result": "2.10 to 4.05", "unit": "h"}, {"measurement": "AUC(0-inf)", "setting": "clinical; 100 mg", "result": "4970 ± 1600", "unit": "ng·h/mL"}, {"measurement": "CL/F, mean ± SD", "setting": "clinical; 100 mg", "result": "21.6 ± 6.80", "unit": "L/h"}, {"measurement": "half-life", "setting": "clinical; 100 mg", "result": "3.81 ± 0.25", "unit": "h"}, {"measurement": "tmax, Range", "setting": "clinical; 100 mg", "result": "1.52 to 3.88", "unit": "h"}, {"measurement": "AUC(0-t)", "setting": "clinical; 100 mg, mean ± SD", "result": "4700 ± 1490", "unit": "ng·h/mL"}, {"measurement": "Cmax", "setting": "clinical; 100 mg, Cmax, mean ± SD", "result": "1340 ± 473", "unit": "ng/mL"}, {"measurement": "AUC12h, mean ± SD", "setting": "clinical; 200 mg", "result": "10,500 ± 4450 ng h/mL"}, {"measurement": "AUC(0-inf)", "setting": "clinical; 200 mg", "result": 11400, "unit": "ng·h/mL"}, {"measurement": "CL/F, mean ± SD", "setting": "clinical; 200 mg", "result": "19.1 ± 7.35", "unit": "L/h"}, {"measurement": "Cmax, mean ± SD", "setting": "clinical; 200 mg", "result": "2830 ± 822", "unit": "ng/mL"}, {"measurement": "half-life", "setting": "clinical; 200 mg", "result": "4.16 ± 1.13", "unit": "h"}, {"measurement": "tmax, Range", "setting": "clinical; 200 mg", "result": "2.13 to 4.00", "unit": "h"}, {"measurement": "AUC(0-t)", "setting": "clinical; 200 mg, mean ± SD", "result": 10400, "unit": "ng·h/mL"}, {"measurement": "Cmax", "setting": "clinical; 200 mg, Cmax, mean ± SD", "result": "2610 ± 837", "unit": "ng/mL"}, {"measurement": "AUC12h, mean ± SD", "setting": "clinical; 400 mg", "result": "14,800 ± 3520 ng h/mL"}, {"measurement": "AUC(0-inf)", "setting": "clinical; 400 mg", "result": 20300, "unit": "ng·h/mL"}, {"measurement": "CL/F, mean ± SD", "setting": "clinical; 400 mg", "result": "20.1 ± 3.83", "unit": "L/h"}, {"measurement": "Cmax, mean ± SD", "setting": "clinical; 400 mg", "result": "3630 ± 876", "unit": "ng/mL"}, {"measurement": "half-life", "setting": "clinical; 400 mg", "result": "4 ± 1.88", "unit": "h"}, {"measurement": "AUC(0-t)", "setting": "clinical; 400 mg, mean ± SD", "result": 18000, "unit": "ng·h/mL"}, {"measurement": "Cmax", "setting": "clinical; 400 mg, Cmax, mean ± SD", "result": "3250 ± 1440", "unit": "ng/mL"}, {"measurement": "AUC12h, mean ± SD", "setting": "clinical; 600 mg", "result": "18,700 ± 4710 ng h/mL"}, {"measurement": "AUC(0-inf)", "setting": "clinical; 600 mg", "result": 18500, "unit": "ng·h/mL"}, {"measurement": "CL/F, mean ± SD", "setting": "clinical; 600 mg", "result": "33.0 ± 5.25", "unit": "L/h"}, {"measurement": "Cmax, mean ± SD", "setting": "clinical; 600 mg", "result": "4500 ± 1580", "unit": "ng/mL"}, {"measurement": "half-life", "setting": "clinical; 600 mg", "result": "3.5 ± 0.39", "unit": "h"}, {"measurement": "tmax, Range", "setting": "clinical; 600 mg", "result": "1.42 to 4.00", "unit": "h"}, {"measurement": "AUC(0-t)", "setting": "clinical; 600 mg, mean ± SD", "result": 16900, "unit": "ng·h/mL"}, {"measurement": "Cmax", "setting": "clinical; 600 mg, Cmax, mean ± SD", "result": "4870 ± 2390", "unit": "ng/mL"}, {"measurement": "Tmax", "setting": "clinical; 600 mg, Median", "result": 2.1, "unit": "h"}, {"measurement": "Tmax", "setting": "clinical; 600 mg, Range", "result": "2 to 4", "unit": "h"}, {"measurement": "AUC12h, mean ± SD", "setting": "clinical; 800 mg", "result": "16,300 ± 6240 ng h/mL"}, {"measurement": "AUC(0-inf)", "setting": "clinical; 800 mg", "result": 26600, "unit": "ng·h/mL"}, {"measurement": "CL/F, mean ± SD", "setting": "clinical; 800 mg", "result": "30.7 ± 4.55", "unit": "L/h"}, {"measurement": "Cmax, mean ± SD", "setting": "clinical; 800 mg", "result": "4790 ± 1100", "unit": "ng/mL"}, {"measurement": "dose proportionality of Cmax and AUCinf (power model analyses)", "setting": "clinical; 800 mg", "result": "increased proportionally until 400 mg in dose-dependent manners"}, {"measurement": "half-life", "setting": "clinical; 800 mg", "result": "3.67 ± 0.81", "unit": "h"}, {"measurement": "tmax, Range", "setting": "clinical; 800 mg", "result": "2.02 to 5.93", "unit": "h"}, {"measurement": "AUC(0-t)", "setting": "clinical; 800 mg, mean ± SD", "result": 23800, "unit": "ng·h/mL"}, {"measurement": "Cmax", "setting": "clinical; 800 mg, Cmax, mean ± SD", "result": "3840 ± 2090", "unit": "ng/mL"}, {"measurement": "Tmax", "setting": "clinical; 800 mg, Median", "result": 2.98, "unit": "h"}, {"measurement": "Tmax", "setting": "clinical; 800 mg, Range", "result": "1.42 to 5.98", "unit": "h"}, {"measurement": "AUC12h, mean ± SD", "setting": "clinical; 1000 mg", "result": "15,700 ± 9100 ng h/mL"}, {"measurement": "Cmax, mean ± SD", "setting": "clinical; 1000 mg", "result": "4990 ± 1210", "unit": "ng/mL"}, {"measurement": "half-life", "setting": "clinical; 1000 mg", "result": "9.11 ± 9.79", "unit": "h"}, {"measurement": "AUC(0-t)", "setting": "clinical; 1000 mg, mean ± SD", "result": 22400, "unit": "ng·h/mL"}, {"measurement": "Cmax", "setting": "clinical; 1000 mg, Cmax, mean ± SD", "result": "2630 ± 1450", "unit": "ng/mL"}, {"measurement": "Tmax", "setting": "clinical; 1000 mg, Range", "result": "2 to 3.97", "unit": "h"}, {"measurement": "Cmax", "setting": "clinical; mean Cmax across dose groups", "result": "1340 to 4990", "unit": "ng/mL"}, {"measurement": "AUC(0-t)", "setting": "clinical; po, 100 mg, mean ± SD", "result": 4610, "unit": "ng·h/mL"}, {"measurement": "Cmax", "setting": "clinical; po, 100 mg, Cmax, mean ± SD", "result": 1180, "unit": "ng/mL"}, {"measurement": "AUC(0-inf)", "setting": "clinical; po, 1000 mg", "result": 26900, "unit": "ng·h/mL"}]}
